Data taken from ChEMBL document CHEMBL1201862, “PubChem BioAssay data set” (2004).
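How tested: cells in 96-well plates exposed to compound for 48 hours at five concentrations. GI50 = concentration required for 50% inhibition of growth.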 Activity calls are given as the source filed them. No stated cut-off is given here; in the data, active = GI50 up to about 1.1 µM and inactive = higher.

Columns and labels:
Assay in all cases: NCI-60 cell line screen, 48 h
786-0 = system: 786-0
HCT-116 = system: HCT-116
HOP-62 = system: HOP-62
HOP-92 = system: HOP-92
IGROV-1 = system: IGROV-1
KM12 = system: KM12
LOX IMVI = system: LOX IMVI
MDA-MB-231 = system: MDA-MB-231
MDA-MB-435 = system: MDA-MB-435
MOLT-4 = system: MOLT-4
Malme-3M = system: Malme-3M
OVCAR-3 = system: OVCAR-3
OVCAR-5 = system: OVCAR-5
OVCAR-8 = system: OVCAR-8
RXF 393 = system: RXF 393
SF-539 = system: SF-539
SNB-75 = system: SNB-75
SR = system: SR
T47D = system: T47D
OVCAR-4 = system: OVCAR-4

Compound | GI50 (786-0) | GI50 (HCT-116) | GI50 (HOP-62) | GI50 (HOP-92) | GI50 (IGROV-1) | GI50 (KM12) | GI50 (LOX IMVI) | GI50 (MDA-MB-231) | GI50 (MDA-MB-435) | GI50 (MOLT-4) | GI50 (Malme-3M) | GI50 (OVCAR-3) | GI50 (OVCAR-5) | GI50 (OVCAR-8) | GI50 (RXF 393) | GI50 (SF-539) | GI50 (SNB-75) | GI50 (SR) | GI50 (T47D) | GI50 (OVCAR-4)
CCC1C(c2ccccc2O)c2cc3c(cc2OC1N1CCOCC1)OCO3 (centres undefined) | 21.1 µM (inactive) | 13.6 µM (inactive) | 15.4 µM (inactive) | 13 µM (inactive) | 15.8 µM (inactive) | 13 µM (inactive) | 14.9 µM (inactive) | 16.8 µM (inactive) | 15.6 µM (inactive) | 6.44 µM (inactive) | 13 µM (inactive) | 12.5 µM (inactive) | 14.9 µM (inactive) | 20.8 µM (inactive) | 13.3 µM (inactive) | 16.3 µM (inactive) | 8.53 µM (inactive) | 14.5 µM (inactive) | 13.2 µM (inactive) | 
CC(C)=CCc1c(OC(=O)c2c(C)cc(O)cc2O)cc(CO)c(CO)c1O | 31.4 µM (inactive) | 20.9 µM (inactive) |  | 17.7 µM (inactive) | 19.2 µM (inactive) | 16.2 µM (inactive) | 16.2 µM (inactive) | 15.5 µM (inactive) | 17.7 µM (inactive) | 16.3 µM (inactive) | 17.5 µM (inactive) |  | 20.4 µM (inactive) | 25 µM (inactive) |  | 18.6 µM (inactive) | 12.6 µM (inactive) | 20.7 µM (inactive) | 6.85 µM (inactive) | 16 µM (inactive)
CC(C)(C)[Si](C)(C)OC1CCOC1(O)c1ccccn1 (centres undefined) | > 100 µM (inactive) | > 100 µM (inactive) | > 100 µM (inactive) | > 100 µM (inactive) | > 100 µM (inactive) | > 100 µM (inactive) | > 100 µM (inactive) | > 100 µM (inactive) | > 100 µM (inactive) | 57.3 µM (inactive) | > 100 µM (inactive) | > 100 µM (inactive) | > 100 µM (inactive) | > 100 µM (inactive) | > 100 µM (inactive) | > 100 µM (inactive) | > 100 µM (inactive) |  | > 100 µM (inactive) | > 100 µM (inactive)
Nc1ncnc2c1ncn2C=C=CCO |  | > 100 µM (inactive) | > 100 µM (inactive) | > 100 µM (inactive) |  | > 100 µM (inactive) | > 100 µM (inactive) | > 100 µM (inactive) | > 100 µM (inactive) | > 100 µM (inactive) | > 100 µM (inactive) | > 100 µM (inactive) | > 100 µM (inactive) | > 100 µM (inactive) | > 100 µM (inactive) |  | > 100 µM (inactive) | > 100 µM (inactive) | > 100 µM (inactive) | > 100 µM (inactive)
Oc1cc(-c2ccccc2)nc2c(S)cccc12 | > 100 µM (inactive) | > 100 µM (inactive) | > 100 µM (inactive) | 63.2 µM (inactive) | > 100 µM (inactive) | > 100 µM (inactive) |  | 62.5 µM (inactive) | > 100 µM (inactive) | 47.3 µM (inactive) | > 100 µM (inactive) | > 100 µM (inactive) | > 100 µM (inactive) | > 100 µM (inactive) | 35.9 µM (inactive) | > 100 µM (inactive) | 23.5 µM (inactive) | > 100 µM (inactive) | 29 µM (inactive) | > 100 µM (inactive)
Cn1ccc(C(=O)NCCN(CCNC(=O)c2ccn(C)c(=O)c2O)CCNC(=O)c2ccn(C)c(=O)c2O)c(O)c1=O |  |  | > 100 µM (inactive) | > 100 µM (inactive) | > 100 µM (inactive) | > 100 µM (inactive) |  | > 100 µM (inactive) | > 100 µM (inactive) |  | > 100 µM (inactive) | > 100 µM (inactive) | 29.9 µM (inactive) | > 100 µM (inactive) | > 100 µM (inactive) | > 100 µM (inactive) | > 100 µM (inactive) | > 100 µM (inactive) | > 100 µM (inactive) | > 100 µM (inactive)
O=c1[nH]c(=O)n([C@@H]2O[C@H](CO)[C@@H](O)[C@H]2O)cc1F [5-FLUOROURIDINE] | 0.0408 µM (active) | 0.0167 µM (active) | 0.171 µM (active) |  | 0.0803 µM (active) | 0.0671 µM (active) | 0.0556 µM (active) | 1.63 µM (inactive) | 0.0333 µM (active) | 0.0861 µM (active) | 0.0678 µM (active) | 0.223 µM (active) | 0.718 µM (active) | 0.056 µM (active) | 0.221 µM (active) | 0.0375 µM (active) | 2.25 µM (inactive) | 0.0473 µM (active) | 0.114 µM (active) | 0.521 µM (active)
Cc1c2cc[n+](C)cc2c(C)c2c1[nH]c1ccc(O)cc12 [ELLIPTINIUM ACETATE] |  | 20.2 µM (inactive) | 4.06 µM (inactive) | 19.3 µM (inactive) | 16.6 µM (inactive) | 2.53 µM (inactive) | 31 µM (inactive) | 50.9 µM (inactive) | 48.9 µM (inactive) | 0.241 µM (active) | 1.75 µM (inactive) | 23.9 µM (inactive) | 71.9 µM (inactive) | 11.6 µM (inactive) | 62.5 µM (inactive) | 12 µM (inactive) | 2.36 µM (inactive) |  | 0.251 µM (active) | 38.3 µM (inactive)
